This is an account of results in patent publication EP2502917A1, “Solid state crystalline forms of 4-(2-ethyl-5-fluoro-2,3-dihydro-1H-inden-2-yl)-1H-imidazole” (Santhera Pharmaceuticals (Schweiz) AG, priority 2011, dated 2012).

A short description of series [1]: Aqueous solubility by UV/Vis spectroscopy (extinction at 270 nm) of the filtered suspension. It counts as physicochemical. The following applies: remaining solid is form A, aliquot diluted by a factor of 500, extinction at 270 nm. Here is the method: A suspension of 118 mg fipamezole hydrochloride form B in 1 mL H2O is stirred at room temperature for two days. […] An aliquot of the solution is diluted with water by a factor of 500 and analyzed by UVNis spectroscopy.
A suspension of 97 mg fipamezole hydrochloride form B* in 0.5 mL H2O is stirred at room temperature for two days. […] An aliquot of the solution is diluted with water by a factor of 500 and analyzed by UVNis spectroscopy.
A suspension of 110 mg fipamezole hydrochloride form D in 0.5 mL H2O is stirred at room temperature for two days. […] An aliquot of the solution is diluted with water by a factor of 500 and analyzed by UVNis spectroscopy.

The nature of series [2]: Thermodynamic stability of polymorphs (differential scanning calorimetry). It counts as physicochemical. The following applies: enantiotropic pair: form A is the low temperature form, form D the high temperature form. Here is the method:
Both forms can be converted into each other, accordingly, forms A and D represent an enantiotropic pair of polymorphs whereby form A is the low temperature form and form D the high temperature form. Differential Scanning Calorimetry (DSC): DSC measurements were carried out on a Perkin Elmer DSC-7. The samples were placed into gold crucibles that were sealed under nitrogen. The measurements were performed with a heating rate of 10 or 20 °C min^-1 over the temperature range from -50 °C to about 200°C.

`CCC1(c2c[nH]cn2)Cc2ccc(F)cc2C1.Cl` (stereo not shown) [form A, 4-(2-Ethyl-5-fluoro-2,3-dihydro-1H-inden-2-yl)-1H-imidazole hydrochloride]: the aqueous solubility entry in series [1] (suspension of form B* in H2O stirred at room temperature for two days) is reported as “about 43 g/L”; in series [1] (suspension of form D in H2O stirred at room temperature for two days) it was “about 46 g/L”. This molecule also displayed a solubility at 2 days in series [1] (water, thermodynamic from solid, suspension of form B in H2O stirred at room temperature for two days) of about 46 mg/mL. Moreover, the thermodynamic stability result in series [2] is listed as “high thermodynamic stability”.
